In patent US12637462B2, “Integrin inhibitor and uses thereof” (Pliant Therapeutics, Inc., priority 2020, dated 2026):
≈ marks a conversion by molar mass, not a printed value. Like-named read-outs stand apart in the source and are kept apart here. Values belong to the compound of their own block, whether it stands above or below them.

Assays:
[1] = Approximate solubility at RT by stepwise solvent addition; assay type: physicochemical
Procedure: The approximate solubility of (S)-4-((2-methoxyethyl)(4-(5,6,7,8-tetrahydro-1,8-naphthyridin-2-yl)butyl)amino)-2-(quinazolin-4-ylamino)butanoic acid was determined at RT. Approximately 2 mg of solids were added into a 3-mL glass vial. Different solvents were then added stepwise (50-50-200-700 μL for each step) into the vials and stirred until the solids were dissolved or a total volume of 1 mL was reached.
The approximate solubility of Form I was determined at RT. Approximately 2 mg of solids were added into 3-mL glass vials. Different solvents were then added stepwise (50-50-200-700 μL for each step) into the vials until the solids were dissolved or a total volume of 1 mL was reached.

[2] = biological target: recombinant human integrin αvβ6 (Homo sapiens, UniProt P06756+P18564); test: Solid phase integrin αvβ6 binding assay; settings: TGFβ1 LAP binding to coated integrin, four-parameter logistic regression; read-out: IC50 for αvβ6 integrin inhibition
Sequence of recombinant human integrin αvβ6 (P06756 31-992 limits assumed): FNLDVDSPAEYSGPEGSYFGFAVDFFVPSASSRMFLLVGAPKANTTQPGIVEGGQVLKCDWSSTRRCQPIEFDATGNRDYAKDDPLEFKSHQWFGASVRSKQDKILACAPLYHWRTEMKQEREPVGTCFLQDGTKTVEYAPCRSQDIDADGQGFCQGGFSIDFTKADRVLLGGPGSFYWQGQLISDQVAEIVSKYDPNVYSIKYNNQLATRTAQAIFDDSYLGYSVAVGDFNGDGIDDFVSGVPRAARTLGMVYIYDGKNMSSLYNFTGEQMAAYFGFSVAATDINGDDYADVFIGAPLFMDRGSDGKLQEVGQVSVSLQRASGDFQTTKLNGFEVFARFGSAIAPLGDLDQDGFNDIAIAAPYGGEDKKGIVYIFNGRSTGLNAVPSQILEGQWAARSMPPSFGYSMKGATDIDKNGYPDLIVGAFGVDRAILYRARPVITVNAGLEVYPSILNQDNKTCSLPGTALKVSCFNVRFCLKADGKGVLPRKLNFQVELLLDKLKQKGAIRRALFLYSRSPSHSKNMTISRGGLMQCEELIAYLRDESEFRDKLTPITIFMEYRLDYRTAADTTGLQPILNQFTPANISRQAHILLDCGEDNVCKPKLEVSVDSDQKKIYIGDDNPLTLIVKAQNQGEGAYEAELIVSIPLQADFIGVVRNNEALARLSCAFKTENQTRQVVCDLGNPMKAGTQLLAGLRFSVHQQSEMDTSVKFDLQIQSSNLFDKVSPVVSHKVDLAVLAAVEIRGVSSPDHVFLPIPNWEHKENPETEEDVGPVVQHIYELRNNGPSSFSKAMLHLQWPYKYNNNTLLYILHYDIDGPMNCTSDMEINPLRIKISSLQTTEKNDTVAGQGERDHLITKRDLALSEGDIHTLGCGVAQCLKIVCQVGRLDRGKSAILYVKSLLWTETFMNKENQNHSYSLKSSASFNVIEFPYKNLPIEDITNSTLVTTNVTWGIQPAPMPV
Sequence of recombinant human integrin αvβ6 (P18564 22-707 limits assumed): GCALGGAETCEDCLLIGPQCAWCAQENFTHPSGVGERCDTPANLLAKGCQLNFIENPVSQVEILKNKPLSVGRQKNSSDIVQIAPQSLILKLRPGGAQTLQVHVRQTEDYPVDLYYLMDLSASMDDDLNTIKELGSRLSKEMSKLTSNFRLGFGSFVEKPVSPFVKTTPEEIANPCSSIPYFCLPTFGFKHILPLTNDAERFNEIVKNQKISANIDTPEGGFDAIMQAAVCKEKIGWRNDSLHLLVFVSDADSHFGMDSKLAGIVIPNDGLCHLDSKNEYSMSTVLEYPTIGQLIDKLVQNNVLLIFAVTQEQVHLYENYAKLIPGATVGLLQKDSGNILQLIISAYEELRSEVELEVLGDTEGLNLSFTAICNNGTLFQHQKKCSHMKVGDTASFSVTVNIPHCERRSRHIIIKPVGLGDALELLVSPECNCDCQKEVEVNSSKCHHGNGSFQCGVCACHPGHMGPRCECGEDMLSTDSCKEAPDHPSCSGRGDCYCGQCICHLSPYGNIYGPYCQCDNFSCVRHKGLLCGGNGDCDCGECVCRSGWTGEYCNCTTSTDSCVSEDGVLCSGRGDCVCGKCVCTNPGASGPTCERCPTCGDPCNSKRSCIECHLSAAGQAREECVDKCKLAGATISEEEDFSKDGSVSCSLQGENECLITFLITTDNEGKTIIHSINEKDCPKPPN
Procedure: Microplates were coated with recombinant human integrin αvβ6 (2 μg/mL) in PBS (100 μL/well 25° C., overnight). The coating solution was removed, washed with wash buffer (0.05% Tween 20; 0.5 mM MnCl2; in 1×TBS). The plate was blocked with 200 μL/well of Block Buffer (1% BSA; 5% sucrose; 0.5 mM MnCl2; in 1×TBS) at 37° C. for 2 h. Dilutions of testing compounds and recombinant TGFβ1 LAP (0.67 μg/mL) in binding buffer (0.05% BSA; 2.5% sucrose; 0.5 mM MnCl2; in 1×TBS) were added. The plate was incubated for 2 hours at 25° C., washed, and incubated for 1 hour with Biotin-Anti-hLAP. Bound antibody was detected by peroxidase-conjugated streptavidin. The IC50 values for testing compounds were calculated by a four-parameter logistic regression. The IC50 value obtained for αvβ6 integrin inhibition for (S)-4-((2-methoxyethyl)(4-(5,6,7,8-tetrahydro-1,8-naphthyridin-2-yl)butyl)amino)-2-(quinazolin-4-ylamino)butanoic acid was <50 nM.

[3] = Dynamic vapor sorption (DVS); assay type: physicochemical; settings: 4.5 g scale batch
Procedure: DVS was measured via a SMS (Surface Measurement Systems) DVS Intrinsic. The relative humidity at 25° C. were calibrated against the deliquescence point of LiCl, Mg(NO3)2 and KCl.
Form I on 4.5 g scale was obtained via slurrying 4.5 g amorphous freeform of (S)-4-((2-methoxyethyl)(4-(5,6,7,8-tetrahydro-1,8-naphthyridin-2-yl)butyl)amino)-2-(quinazolin-4-ylamino)butanoic acid and an equimolar amount of 85% phosphoric acid (1.05 g) in anhydrous EtOH (≥99.7%) (112 mL) at RT and seeded with around 1 wt % Form I seed. The product was analyzed by XRPD, DSC, TGA, DVS, ^1H NMR, and HPLC. […] Based on HPLC/IC analysis, the molar ratio of API:phosphoric acid was 1:1.

[4] = Heating experiment, solid form checked by XRPD; assay type: physicochemical; settings: for solid form after heating: after heating to 150° C.

- Solubility ([1]; 1,4-Dioxane): S > 42.0 mg/mL
- Solubility ([1]; DCM): S > 38.0 mg/mL
- Solubility ([1]; DMSO): S > 42.0 mg/mL
- Solubility ([1]; EtOH): S > 44.0 mg/mL
- Solubility ([1]; IPA): S > 48.0 mg/mL
- Solubility ([1]; THF): S > 32.0 mg/mL
SMILES: COCCN(CCCCc1ccc2c(n1)NCCC2)CC[C@H](Nc1ncnc2ccccc12)C(=O)O [(S)-4-((2-methoxyethyl)(4-(5,6,7,8-tetrahydro-1,8-naphthyrid] [(S)-4-((2-methoxyethyl)(4-(5,6,7,8-tetrahydro-1,8-naphthyridin-2-yl)butyl)amino)-2-(quinazolin-4-ylamino)butanoic acid]

- Solubility ([1]; ACN, organic solvent or mixture, thermodynamic from solid, ACN, read-out: Solubility): 1900 to 6300 µg/mL (≈ 3.86 to 12.8 mM)
- Solubility ([1]; CPME, organic solvent or mixture, thermodynamic from solid, CPME, read-out: Solubility): 2600 to 8700 µg/mL (≈ 5.28 to 17.7 mM)
- Solubility ([1]; EtOAc, organic solvent or mixture, thermodynamic from solid, EtOAc, read-out: Solubility): 2100 to 7000 µg/mL (≈ 4.26 to 14.2 mM)
- Solubility ([1]; IPAc, organic solvent or mixture, thermodynamic from solid, IPAc, read-out: Solubility): 2300 to 7700 µg/mL (≈ 4.67 to 15.6 mM)
- Solubility ([1]; MIBK, organic solvent or mixture, thermodynamic from solid, MIBK, read-out: Solubility): 2500 to 8300 µg/mL (≈ 5.07 to 16.8 mM)
- Solubility ([1]; MTBE, organic solvent or mixture, thermodynamic from solid, MTBE, read-out: Solubility): < 2000 µg/mL
- Solubility ([1]; MeOH, organic solvent or mixture, thermodynamic from solid, MeOH, read-out: Solubility): > 52000 µg/mL
- Solubility ([1]; Toluene, organic solvent or mixture, thermodynamic from solid, Toluene, read-out: Solubility): 1900 to 6300 µg/mL (≈ 3.86 to 12.8 mM)
- Solubility ([1]; n-Heptane, organic solvent or mixture, thermodynamic from solid, n-Heptane, read-out: Solubility): < 2200 µg/mL
- IC50 [2]: < 0.05 µM
SMILES: COCCN(CCCCc1ccc2c(n1)NCCC2)CC[C@H](Nc1ncnc2ccccc12)C(=O)O [(S)-4-((2-methoxyethyl)(4-(5,6,7,8-tetrahydro-1,8-naphthyridin-2-yl)butyl)amino)-2-(quinazolin-4-ylamino)butanoic acid]

- Solubility ([1]; 1,4-Dioxane): S < 1.7 mg/mL
- Solubility ([1]; 2-MeTHF): S < 2.1 mg/mL
- Solubility ([1]; ACN): S < 1.6 mg/mL
- Solubility ([1]; Acetone): S < 1.9 mg/mL
- Solubility ([1]; CPME): S < 1.9 mg/mL
- Solubility ([1]; DCM): S < 2.8 mg/mL
- Solubility ([1]; EtOAc): S < 1.7 mg/mL
- Solubility ([1]; H2O): S > 56.0 mg/mL
- Solubility ([1]; IPA): S < 2.2 mg/mL
- Solubility ([1]; IPAc): S < 2.6 mg/mL
- Solubility ([1]; MEK): S < 2.4 mg/mL
- Solubility ([1]; MIBK): S < 2.8 mg/mL
- Solubility ([1]; MTBE): S < 2.1 mg/mL
- Solubility ([1]; MeOH): S > 52.0 mg/mL
- Solubility ([1]; THF): S < 1.6 mg/mL
- Solubility ([1]; Toluene): S < 2.2 mg/mL
- Solubility ([1]; n-Heptane): S < 2.1 mg/mL
- water absorption ([3]; 25° C./80% RH): 16.4%
- state after the DVS test ([3]; after DVS test): deliquescent
- form change after heating ([4]; after heating to 110° C.): No form changes
- solid form after heating [4]: amorphous
SMILES: COCCN(CCCCc1ccc2c(n1)NCCC2)CC[C@H](Nc1ncnc2ccccc12)C(=O)O [Form I, (S)-4-((2-methoxyethyl)(4-(5,6,7,8-tetrahydro-1,8-naphthyridin-2-yl)butyl)amino)-2-(quinazolin-4-ylamino)butanoic acid]

- solid form after heating [4]: amorphous
SMILES: COCCN(CCCCc1ccc2c(n1)NCCC2)CC[C@H](Nc1ncnc2ccccc12)C(=O)O [Form II, (S)-4-((2-methoxyethyl)(4-(5,6,7,8-tetrahydro-1,8-naphthyridin-2-yl)butyl)amino)-2-(quinazolin-4-ylamino)butanoic acid]
